Key:
[1] = tested on: Lgr5+ stem cells in small intestinal crypts; assay: Small intestinal crypt culture from Lgr5-GFP mice in Matrigel: cell proliferation and Lgr5-GFP expression; type: cell-based, mouse; conditions: for effect to promote GFP expression: HDAC inhibitor added to ENR-C condition, 6 day crypt cultures, compared with VPA
Experimental: Crypts and single Lgr5-GFP cells were isolated as previously described (Sato et al., 2009). Briefly, the proximal half of the small intestine was harvested, opened longitudinally, and washed with cold PBS to remove luminal content. The tissue was then cut into 2-4 mm pieces with scissors and further washed 5-10 times with cold PBS by pipetting up and down using a 10-ml pipette. Tissue fragments were incubated with 2 mM EDTA in PBS for 30 min on ice. After removal of EDTA, tissue fragments were washed with PBS to release crypts. Supernatant fractions enriched in crypts were collected, passed through a 70 μm cell strainer and centrifuged at 300 g for 5 minutes. The cell pellet was re-suspended with cell culture media without growth factors and centrifuged at 150 g to remove single cells. Crypts were then cultured or used for single cell isolation. To obtain single cells, crypts were incubated in culture medium for 45 minutes at 37° C. and triturated with a glass pipette. Dissociated cells were passed through 20 μm cell strainer, negative stained with propidium iodide and single viable GFP-high cells were sorted by flow cytometry (FACS Aria, BD) as previously described (Sato et al., 2009). Small intestinal crypts isolated from Lgr5-EGFP-ires-CreERT2 mice were embedded in Matrigel and cultured under conventional culture conditions in the presence of EGF, Noggin and R-spondin 1 (collectively referred to as ENR) leading to organoids with crypts and villus-like domains and GFP^+ cells at the crypt tips, consistent with previous reports (Sato et al., 2009). Isolated crypts or single cells were cultured as previously described (Sato et al., 2009) with minimal modification. Briefly, crypts or single cells were entrapped in Matrigel and plated at the center of wells in a 24-well plate. After polymerization of Matrigel (growth factor reduced; BD Bioscience), 500 μl of culture medium (Advanced DMEM/F12 (Life Technologies)) was added containing growth factors including EGF (50 ng/ml, Life Technologies), Noggin (100 ng/ml, Peprotech) and R-spondin 1 (500 ng/ml, R&D) and small molecules including CHIR99021 (3 μM, Stemgent) and Valproic Acid (1 mM, Sigma-Aldrich). For comparison of different culture conditions, small molecules or growth factors were added to freshly isolated crypts immediately after plating in Matrigel to test the ability to minimize potential differentiation of the ISC within the crypts and thus sustain crypt cultures. Cell culture media was changed every other day. For single cell culture, cells were embedded in Matrigel containing Jagged-1 peptide (1 μM; AnaSpec) and Y-27632 (10 μM; Tocris) was added for the first 2 days. Cells were passaged either as cell colonies as previously described (Sato et al., 2009) or as single cells. For single cell passage, cell culture medium was removed and Accutase (Life Technologies) was added. After incubation at 37° C. for 10-20 minutes, cell colonies were dissociated into single cells by pipetting. Cells were then washed, embedded in fresh Matrigel and plated into 24-well plates. Cells cultured in the CV condition were passaged every 6 days at a 1:20 split ratio. Approximately half of the cultured crypts contained GFP+ cells, which is consistent with the in vivo GFP expression of Lgr5-GFP mice (FIG. 1).
The growth factors used in the ENR condition provide essential, but not adequate cues to sustain the self-renewal of Lgr5^+ stem cells. To identify factors essential to maintaining the self-renewal status of intestinal stem cells, selected small molecules that modulate signaling pathways of ISCs, such as Wnt, Notch, and BMP, were tested under the ENR condition, using the Lgr5-GFP reporter.
CHIR is a highly-specific GSK3 inhibitor that activates the Wnt/β-catenin signaling pathway (Bain et al., 2007), and has been used to maintain the self-renewal state of embryonic stem cells (Ying et al., 2008). […]

[2] = tested on: human small intestinal crypts; assay: Culture of human small intestinal crypts: LGR5 expression (RT-PCR) and cell number; type: cell-based
Description: Human small intestinal crypts were isolated from a resected normal small intestinal specimen and cultured as described in Example 1. The same cell culture solutions used in the culture of mouse small intestinal stem cells/crypts, which comprise a combination of CHIR99021 and VPA or Tubastatin A added to the ENR (EGF, Noggin, R-Spondin 1) condition, were compared to published cell culture solutions for human intestinal stem cells/crypts (Jung et al., 2011; Sato et al., 2011). RT-PCR was used to assess the maintenance of epithelial stem cells in the culture, specifically by determining the self-renewal or differentiation status. LGR5 was used as a stem cell marker and ALPI, MUC2, CHGA and LYZ were used as differentiation markers. Cell growth was assessed by counting the cell number in the cultures and by observing the morphology and size of colonies.

[3] = tested on: Lgr5+ stem/progenitor cells derived from the mouse inner ear; assay: Culture of inner ear (cochlear) Lgr5-GFP epithelial cells in Matrigel; type: cell-based; conditions: 8 day cultures; for cell proliferation on addition of a growth factor: EGF added to CV, others added to EGF+CV (FIG. 14D); for GFP expression on addition of a growth factor: added to EGF+CV or to the EGF+bFGF combination (FIG. 14D, 14E)
Description: The same culture condition (EGF, Noggin, R-spondin1, or “ENR”) as used in Lgr5+ small intestinal stem cell cultures was first established.
Isolated organ of Corti from Lgr5-GFP mice were dissociated into single cells using accutase and cultured in multiple combinations of soluble factors and small molecules in Matrigel for 8 days. The resulting cultures were further dissociated into single cells and analyzed using FACS. […] In addition, the combination of EGF, bFGF and IGF-1 (designated as EFI) improved cell proliferation and GFP expression compared with the ENR condition (FIG. 14A-14C).
To further investigate the effects of individual growth factors when combined with CHIR and VPA, growth factors including Mitogenic growth factors (EGF, bFGF and IGF-1) as well as the Wnt agonist R-spondin 1 in combination with CHIR and VPA were tested.

[4] = tested on: Lgr5+ stem cells; assay: Controlled differentiation of Lgr5+ stem cells after CV culture (RT-PCR and staining of differentiation markers); type: cell-based, mouse; conditions: colonies from 6 days CV, then 4 days with ENR plus agents (FIG. 7B)
[5] = combined with CHIR or Wnt3a, crypts 6 days (FIG. 9F)
[6] = ENR-C condition with DAPT 5 μM, 3 days
[7] = multiple concentrations (FIG. 9E)

For `Cn1c(/C=C/C(=O)NO)ccc1/C=C/C(=O)c1cccc(F)c1` [MC1568], the “effect to promote GFP expression” value [1] was “no or only moderate effects”.
`NC(=O)c1cccnc1` [Nicotinamide] was tested, and the “effect to promote GFP expression” value [1] was “no or only moderate effects”, the GFP expression [1, 5] was “did not promote” and the cell proliferation [1, 5] was “did not promote”. For the same compound, the “expression of stem cell marker LGR5” value ([2]; added to ENR (or to the CHIR+VPA condition), RT-PCR) was “without great impact” and the “proliferation of human small intestinal crypts (cell number)” value ([2]; cell numbers at day 9 after seeding (FIG. 25A)) was “increased the proliferation”.
With EGF: Epidermal Growth Factor the “requirement of growth factor to maintain self-renewal of Lgr5+ stem cells” value ([1]; crypts 6 days in the CV condition (CHIR 3 μM, VPA 1 mM)) was “could be removed from the culture without impacting maintenance”, the proliferation of crypts ([1]; growth factor in the CV condition, 6 days) was “promoted the proliferation” and the “cell proliferation on addition of a growth factor” value [3] was “greatly increased”.
With `C[C@H](NC(=O)Cc1cc(F)cc(F)c1)C(=O)N[C@H](C(=O)OC(C)(C)C)c1ccccc1` [DAPT, N-[N-(3,5-Difluorophenacetyl)-L-alanyl]-S-phenylglycine t-butyl ester] the GFP expression [1, 6] was “impaired”, the cell proliferation [1, 6] was “impaired” and the Alpi expression [4] was “induced expression”. The ChgA expression [4] was “greatly elevated”, the Lgr5 expression [4] was “decreased” and the Lysozyme expression [4] was “greatly elevated”. The Muc2 expression [4] was “greatly elevated”.
For `CCCC(=O)[O-].[Na+]` [Butyrate, Sodium butyrate], the “effect to promote GFP expression” value [1] was “no or only moderate effects”.
In the case of `CC(=O)Nc1ccc(C(=O)Nc2ccccc2N)cc1` [CI-994], the “effect to promote GFP expression” value [1] is reported as “no or only moderate effects”.
With `Cc1ccc2nc(NC(=O)CSc3nc4c(c(=O)n3-c3ccccc3)SCC4)sc2c1` [IWP-2, N-(6-Methyl-2-benzothiazolyl)-2-[(3,4,6,7-tetrahydro-4-oxo-3-phenylthieno[3,2-d]pyrimidin-2-yl)thio]-acetamide] the Alpi expression [4] was “preferentially induced”, the ChgA expression [4] was “modestly elevated” and the Lgr5 expression [4] was “completely abolished”. For the same compound, the Lysozyme expression [4] was “completely abolished” and the Muc2 expression [4] was “modestly elevated”.
For IGF-1: mitogenic growth factor, the “GFP expression on addition of a growth factor” value [3] was “slightly increased”.
For `Nc1ccccc1NC(=O)c1ccc(CNC(=O)OCc2cccnc2)cc1` [MS275], the “effect to promote GFP expression” value [1] was “no or only moderate effects”.
With bFGF: mitogenic growth factor the “cell proliferation on addition of a growth factor” value [3] was “further increased” and the “GFP expression on addition of a growth factor” value [3] was “further increased”.
For `O=C(CCCCCCC(=O)NO)NO` [SBHA, Suberohydroxamic acid], the “effect to promote GFP expression” value [1] was “no or only moderate effects”.
With `CC(/C=C/C(=O)NO)=C\[C@@H](C)C(=O)c1ccc(N(C)C)cc1` [TSA, Trichostatin A] the “GFP expression at multiple concentrations” value [1, 7] was “maintained GFP expression” and the “cell proliferation at higher concentration” value [1, 7] was “marked proliferation inhibition effect”.
